Reference: publication PMC3574212 (Journal of medicinal chemistry, 2013)
“Also recorded” adds a separate entry of the source.

Tests used:
[1] = target: T1, EPAC2 (Mus musculus, UniProt Q9EQZ6); assay: cAMP-mediated EPAC2 GEF activity; format: biochemical; details: 25 µM compound in the presence of 25 µM cAMP
T1 sequence (Q9EQZ6 1-1011): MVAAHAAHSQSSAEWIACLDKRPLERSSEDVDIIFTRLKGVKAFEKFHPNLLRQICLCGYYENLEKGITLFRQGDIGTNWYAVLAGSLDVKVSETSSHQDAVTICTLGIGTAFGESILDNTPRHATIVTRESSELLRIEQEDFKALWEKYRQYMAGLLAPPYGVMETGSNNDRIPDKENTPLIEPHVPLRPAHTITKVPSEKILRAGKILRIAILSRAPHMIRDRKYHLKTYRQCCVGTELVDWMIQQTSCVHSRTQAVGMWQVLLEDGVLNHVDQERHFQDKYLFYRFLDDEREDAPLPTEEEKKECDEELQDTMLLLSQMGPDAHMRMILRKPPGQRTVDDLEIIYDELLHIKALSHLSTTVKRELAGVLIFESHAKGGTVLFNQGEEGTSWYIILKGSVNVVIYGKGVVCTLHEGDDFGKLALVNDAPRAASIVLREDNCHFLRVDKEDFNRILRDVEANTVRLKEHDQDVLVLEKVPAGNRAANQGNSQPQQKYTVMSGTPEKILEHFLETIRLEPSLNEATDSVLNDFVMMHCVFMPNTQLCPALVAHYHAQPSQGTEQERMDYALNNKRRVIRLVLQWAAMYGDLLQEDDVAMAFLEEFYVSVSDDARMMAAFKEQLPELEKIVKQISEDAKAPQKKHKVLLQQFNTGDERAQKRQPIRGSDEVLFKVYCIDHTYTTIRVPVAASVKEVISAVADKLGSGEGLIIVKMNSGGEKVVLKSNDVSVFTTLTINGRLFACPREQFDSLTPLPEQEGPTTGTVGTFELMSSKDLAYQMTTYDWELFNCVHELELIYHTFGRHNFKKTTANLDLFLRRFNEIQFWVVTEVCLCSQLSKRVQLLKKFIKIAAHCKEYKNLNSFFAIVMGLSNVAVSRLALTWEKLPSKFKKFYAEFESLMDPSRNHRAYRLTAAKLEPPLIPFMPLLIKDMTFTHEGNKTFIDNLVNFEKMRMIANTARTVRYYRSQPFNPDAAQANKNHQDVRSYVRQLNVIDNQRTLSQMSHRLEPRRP

[2] = test system: type I PKA holoenzyme; assay: Counter screening assay, type I PKA holoenzyme kinase activity; format: biochemical; details: 25 µM compound, 0.1 mM cAMP
[3] = test system: type II PKA holoenzyme; assay: Counter screening assay, type II PKA holoenzyme kinase activity; format: biochemical; details: 25 µM compound, 0.1 mM cAMP
[4] = target: T2, EPAC1 (Homo sapiens, UniProt O95398); assay: cAMP-mediated EPAC1 GEF activity; format: biochemical; details: 25 µM compound in the presence of 25 µM cAMP
T2 sequence (O95398 1-923): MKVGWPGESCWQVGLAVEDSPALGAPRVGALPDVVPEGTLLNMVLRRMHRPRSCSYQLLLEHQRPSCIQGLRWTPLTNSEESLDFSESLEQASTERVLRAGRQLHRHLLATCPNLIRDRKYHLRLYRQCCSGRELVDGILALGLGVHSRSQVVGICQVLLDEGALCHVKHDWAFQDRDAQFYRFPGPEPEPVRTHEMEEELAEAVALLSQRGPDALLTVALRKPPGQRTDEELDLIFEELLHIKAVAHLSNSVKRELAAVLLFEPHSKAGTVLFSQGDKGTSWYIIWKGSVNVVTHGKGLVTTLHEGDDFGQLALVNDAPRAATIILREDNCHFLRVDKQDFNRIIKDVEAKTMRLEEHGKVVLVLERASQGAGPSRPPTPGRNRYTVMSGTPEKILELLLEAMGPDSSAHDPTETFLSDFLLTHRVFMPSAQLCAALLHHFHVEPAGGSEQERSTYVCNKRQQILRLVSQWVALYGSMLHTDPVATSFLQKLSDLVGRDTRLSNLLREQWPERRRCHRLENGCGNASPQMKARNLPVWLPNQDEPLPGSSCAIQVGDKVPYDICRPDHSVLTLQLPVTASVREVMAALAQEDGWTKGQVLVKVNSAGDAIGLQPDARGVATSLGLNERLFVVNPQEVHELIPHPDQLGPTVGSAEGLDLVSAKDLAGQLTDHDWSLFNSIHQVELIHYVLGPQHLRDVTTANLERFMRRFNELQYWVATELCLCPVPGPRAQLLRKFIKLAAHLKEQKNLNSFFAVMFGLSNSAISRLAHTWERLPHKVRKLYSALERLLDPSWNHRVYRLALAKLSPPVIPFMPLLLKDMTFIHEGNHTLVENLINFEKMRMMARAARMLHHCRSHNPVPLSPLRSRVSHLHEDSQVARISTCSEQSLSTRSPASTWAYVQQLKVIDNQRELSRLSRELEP

[5] = target: T2, EPAC1; details: cAMP-mediated EPAC1 GEF activity; ref 18b; cited from earlier work
[6] = target: T1, EPAC2; assay: 8-NBD-cAMP competition binding assay; details: for Relative Potency (RA): RA = IC50, cAMP/ IC50, compound
[7] = test system: HEK293 cells stably expressing the PKA sensor AKAR3; assay: FRET-based live-cell assay for PKA; details: 10 µM 20i, 10 µM 8-Br-cAMP-AM
[8] = target: HEK293/EPAC2-FL cells (Homo sapiens, UniProt Q8WZA2); assay: FRET-based live-cell assay for EPAC2 activation; details: 10 µM 20i pretreatment, 10 µM 007-AM
[9] = target: T3, HEK293/EPAC1-FL (Homo sapiens, UniProt O95398); assay: FRET-based live-cell assay for EPAC1 activation; details: 10 µM 20i, 10 µM 007-AM
T3 sequence (O95398 1-923): T2 sequence (O95398 1-923)

Sequence of HEK293/EPAC2-FL cells (Q8WZA2 whole entry): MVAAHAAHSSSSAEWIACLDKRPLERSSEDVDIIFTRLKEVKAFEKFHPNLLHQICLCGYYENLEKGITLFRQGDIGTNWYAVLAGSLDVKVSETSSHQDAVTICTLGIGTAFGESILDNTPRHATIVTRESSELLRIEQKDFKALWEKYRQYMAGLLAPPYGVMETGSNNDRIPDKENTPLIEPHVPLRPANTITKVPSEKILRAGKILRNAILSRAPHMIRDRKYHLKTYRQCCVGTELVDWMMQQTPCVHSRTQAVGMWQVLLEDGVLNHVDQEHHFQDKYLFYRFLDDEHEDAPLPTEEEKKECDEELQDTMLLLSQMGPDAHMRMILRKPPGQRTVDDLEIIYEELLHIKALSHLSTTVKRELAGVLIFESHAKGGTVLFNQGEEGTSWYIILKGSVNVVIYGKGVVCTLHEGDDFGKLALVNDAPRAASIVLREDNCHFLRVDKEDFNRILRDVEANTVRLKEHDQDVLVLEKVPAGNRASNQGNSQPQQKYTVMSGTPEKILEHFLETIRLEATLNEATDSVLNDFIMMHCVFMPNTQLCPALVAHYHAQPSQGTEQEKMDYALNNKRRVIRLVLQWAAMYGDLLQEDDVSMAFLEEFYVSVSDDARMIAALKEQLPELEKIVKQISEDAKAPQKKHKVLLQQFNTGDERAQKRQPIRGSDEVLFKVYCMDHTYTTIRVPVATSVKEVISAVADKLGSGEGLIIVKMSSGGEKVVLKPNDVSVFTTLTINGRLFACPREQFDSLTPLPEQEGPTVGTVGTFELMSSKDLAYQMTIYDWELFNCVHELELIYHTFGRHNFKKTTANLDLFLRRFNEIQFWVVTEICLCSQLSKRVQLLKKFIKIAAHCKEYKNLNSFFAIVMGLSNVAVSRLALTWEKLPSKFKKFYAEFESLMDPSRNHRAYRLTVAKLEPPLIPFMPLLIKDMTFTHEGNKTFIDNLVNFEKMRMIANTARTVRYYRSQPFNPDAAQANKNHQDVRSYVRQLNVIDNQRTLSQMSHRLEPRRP

Row | Compound | Inhibition of EPAC2 GEF activity [1] | Effect on cAMP-induced type I PKA holoenzyme activation [2] | Effect on cAMP-induced type II PKA holoenzyme activation [3] | Inhibition of EPAC1-mediated Rap1-GDP exchange activity [4] | Selectivity EPAC2 vs EPAC1 of HTS hits [5] | Relative Potency (RA) [6] | fold more potent than cAMP ([6]; 8-NBD-cAMP competition in binding EPAC2) | Inhibition of 8-Br-cAMP-AM induced PKA activation (AKAR3 FRET) [7] | Block of 007-AM induced decrease of FRET (EPAC2 activation) [8] | Block of 007-AM induced decrease of FRET (EPAC1 activation) [9]
1 | Cc1ccc(S(=O)(=O)c2c(C)cc(C)cc2C)cc1 [Compound 1] | inhibit EPAC2 GEF activity to basal levels | not to significantly alter | not to significantly alter | no inhibition; also recorded: not to inhibit | – | – | – | – | – | –
2 | Nc1ccc(Nc2ccc(N)cc2S(=O)(=O)O)cc1 [Compound 2] | – | – | – | – | not exclusively specific for EPAC2 | 2.2 | – | – | – | –
3 | Cc1cc(C)c(Nc2cc(Cl)ccc2Cl)c(C)c1 [Compound 14c, (2,5-Dichlorophenyl)-(2,4,6-trimethylphenyl)amine] | inhibit EPAC2 GEF activity to basal levels | not to significantly alter | not to significantly alter | no inhibition; also recorded: not to inhibit | – | 100 | about 100 fold | – | – | –
4 | Cc1cc(C)c(S(=O)(=O)n2cc(C)cc2C)c(C)c1 [Compound 20i, 2,4-Dimethyl-1-(2,4,6-trimethylbenzenesulfonyl)-1H-pyrrole] | inhibit EPAC2 GEF activity to basal levels | not to significantly alter | not to significantly alter | no inhibition; also recorded: not to inhibit | – | – | – | not inhibited; also recorded: did not affect PKA activation | fully blocked; also recorded: blocked EPAC2 | incapable of blocking; also recorded: not EPAC1 activation
